Laboratory results published in patent publication US20060264460A1 (Wyeth, priority 2005, published 2006).

These compounds were tested against T1, human Cot/Tpl2 kinase (Homo sapiens, UniProt P41279) (assay: Tpl2/Cot kinase assay: GST-MEK1 phosphorylation detected by ELISA (DELFIA Eu)). Details: 0.4 nM Tpl2, 35 nM GST-MEK1, 50 uM ATP, 1 h at 30° C.
T1 construct: human Cot/Tpl2 kinase construct encoding residues 30-398; 6His (N); made in house; host or cells: Sf9 insect cells, baculovirus system (BD Biosciences)
T1 sequence (P41279 30-398): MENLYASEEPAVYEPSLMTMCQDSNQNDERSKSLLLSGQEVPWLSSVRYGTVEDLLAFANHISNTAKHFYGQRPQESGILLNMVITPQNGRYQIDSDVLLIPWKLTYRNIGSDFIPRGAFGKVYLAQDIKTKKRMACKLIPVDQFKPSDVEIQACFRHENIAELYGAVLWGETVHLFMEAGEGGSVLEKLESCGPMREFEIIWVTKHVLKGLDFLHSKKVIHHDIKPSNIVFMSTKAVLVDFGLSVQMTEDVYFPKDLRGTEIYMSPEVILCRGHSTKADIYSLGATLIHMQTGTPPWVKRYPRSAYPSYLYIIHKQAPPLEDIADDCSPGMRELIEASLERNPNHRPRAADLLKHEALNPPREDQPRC
Type: biochemical
Procedure, shortened: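 His-tagged human Tpl2 from Sf9 cells, Ni-affinity and size-exclusion purified (monomer). 0.4 nM Tpl2 with 35 nM GST-MEK1, 50 uM ATP, MOPS pH 7.2, 1% DMSO, 1 h at 30° C; EDTA stop. MEK1 Ser217/221 phosphorylation detected by anti-phospho-MEK1 and Eu-labelled secondary ELISA; IC50 fitted.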

SMILES | IC50
CN1CCN(S(=O)(=O)c2ccc(CNc3ccc4ncc(C#N)c(Nc5ccc(F)c(Cl)c5)c4c3)cc2)CC1 [Example 122, 6-(4-(4-methylpiperazin-1-ylsulfonyl)benzylamino)-4-(3-chloro-4-fluorophenylamino)quinoline-3-carbonitrile] | 580 nM
CN(C)CCNS(=O)(=O)c1ccc(CNc2ccc3ncc(C#N)c(Nc4ccc(F)c(Cl)c4)c3c2)cc1 [Example 123, 4-((4-(3-chloro-4-fluorophenylamino)-3-cyanoquinolin-6-ylamino)methyl)-N-(2-(dimethylamino)ethyl)benzenesulfonamide] | 540 nM
CN(C)Cc1cc(NCc2cccnc2)cc2c(Nc3cccc(Br)c3)c(C#N)cnc12 [Example 124, 4-(3-bromophenylamino)-8-((dimethylamino)methyl)-6-(pyridin-3-ylmethylamino)quinoline-3-carbonitrile] | > 10000 nM
Cc1cc(N)cc2c(Nc3cccc(Br)c3)c(C#N)cnc12 [Example 125, 6-amino-4-(3-bromophenylamino)-8-methylquinoline-3-carbonitrile] | 11000 nM
Cc1cc(NCc2cccnc2)cc2c(Nc3cccc(Br)c3)c(C#N)cnc12 [Example 126, 4-(3-bromophenylamino)-8-methyl-6-(pyridin-3-ylmethylamino)quinoline-3-carbonitrile] | 3300 nM
CC(Nc1ccc2ncc(C#N)c(Nc3ccc(F)c(Cl)c3)c2c1)c1ccccn1 (centres unmarked) [Example 127, 4-(3-chloro-4-fluorophenylamino)-6-(1-(pyridin-2-yl)ethylamino)quinoline-3-carbonitrile] | 64 nM
Cc1c(CNc2ccc3ncc(C#N)c(Nc4ccc(F)c(Cl)c4)c3c2)ncn1C [Example 128, 4-(3-chloro-4-fluorophenylamino)-6-((1,5-dimethyl-1H-imidazol-4-yl)methylamino)quinoline-3-carbonitrile] | 3.2 nM
Cc1c(CNc2ccc3ncc(C#N)c(Nc4ccc(F)c(Cl)c4)c3c2)ncn1CCN1CCOCC1 [Example 129, 4-(3-chloro-4-fluorophenylamino)-6-((5-methyl-1-(2-morpholinoethyl)-1H-imidazol-4-yl)methylamino)quinoline-3-carbonitrile] | 14 nM
Cc1ncn(CCN2CCOCC2)c1CNc1ccc2ncc(C#N)c(Nc3ccc(F)c(Cl)c3)c2c1 [Example 130, 4-(3-chloro-4-fluorophenylamino)-6-((4-methyl-1-(2-morpholinoethyl)-1H-imidazol-5-yl)methylamino)quinoline-3-carbonitrile] | 260 nM

The remaining lines, values ahead:

IC50 | SMILES
16000 nM | Cc1cc(NCCN2CCOCC2)cc2c(Nc3cccc(Br)c3)c(C#N)cnc12 [Example 131, 4-(3-bromophenylamino)-8-methyl-6-(2-morpholinoethylamino)quinoline-3-carbonitrile]
17300 nM | Cc1nn(C)c(Cl)c1CNc1ccc2ncc(C#N)c(Nc3ccc(F)c(Cl)c3)c2c1 [Example 132, 6-((5-chloro-1,3-dimethyl-1H-pyrazol-4-yl)methylamino)-4-(3-chloro-4-fluorophenylamino)quinoline-3-carbonitrile]
200 nM | Cc1ncn(C)c1CNc1ccc2ncc(C#N)c(Nc3ccc(F)c(Cl)c3)c2c1 [Example 133, 4-(3-chloro-4-fluorophenylamino)-6-((1,4-dimethyl-1H-imidazol-5-yl)methylamino)quinoline-3-carbonitrile]
> 40000 nM | CN(C)Cc1cc(NCCN2CCOCC2)cc2c(Nc3cccc(Br)c3)c(C#N)cnc12 [Example 134, 4-(3-bromophenylamino)-8-((dimethylamino)methyl)-6-(2-morpholinoethylamino)quinoline-3-carbonitrile]
> 40000 nM | Cn1cc(Cl)c(CNc2ccc3ncc(C#N)c(Nc4ccc(F)c(Cl)c4)c3c2)n1 [Example 135, 6-((4-chloro-1-methyl-1H-pyrazol-3-yl)methylamino)-4-(3-chloro-4-fluorophenylamino)quinoline-3-carbonitrile]
